Like-named read-outs stand apart in the source and are kept apart here.
Key:
Type in all cases: cell-based
168 GPCRs [1] = target: T1, 168 GPCRs (Homo sapiens, UniProt P30411)
T1 construct: host or cells: PathHunter cell lines
T1 sequence (P30411 1-391): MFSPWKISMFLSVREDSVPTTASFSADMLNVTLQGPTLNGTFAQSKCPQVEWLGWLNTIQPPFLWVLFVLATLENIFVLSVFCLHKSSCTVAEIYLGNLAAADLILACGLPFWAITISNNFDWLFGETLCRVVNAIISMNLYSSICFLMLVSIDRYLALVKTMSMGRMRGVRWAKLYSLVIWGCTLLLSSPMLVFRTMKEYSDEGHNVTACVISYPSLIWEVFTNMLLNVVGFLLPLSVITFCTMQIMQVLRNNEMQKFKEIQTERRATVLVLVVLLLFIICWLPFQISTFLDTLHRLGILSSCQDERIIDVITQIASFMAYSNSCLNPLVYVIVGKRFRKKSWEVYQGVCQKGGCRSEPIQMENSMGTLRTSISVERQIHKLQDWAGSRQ

168 GPCRs [2] = target: T2, 168 GPCRs (Homo sapiens, UniProt P32246)
T2 construct: host or cells: PathHunter cell lines
T2 sequence (P32246 1-355): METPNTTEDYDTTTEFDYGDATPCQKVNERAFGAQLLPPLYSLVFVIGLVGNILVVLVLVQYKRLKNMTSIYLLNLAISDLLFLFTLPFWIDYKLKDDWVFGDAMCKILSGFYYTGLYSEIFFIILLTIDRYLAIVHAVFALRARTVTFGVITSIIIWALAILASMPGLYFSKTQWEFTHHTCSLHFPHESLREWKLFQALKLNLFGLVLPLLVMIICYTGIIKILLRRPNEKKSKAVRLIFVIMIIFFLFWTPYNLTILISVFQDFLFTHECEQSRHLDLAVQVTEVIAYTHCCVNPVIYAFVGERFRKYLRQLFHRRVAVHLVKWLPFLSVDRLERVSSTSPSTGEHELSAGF

168 GPCRs [3] = target: T3, 168 GPCRs (Homo sapiens, UniProt P35414)
T3 construct: host or cells: PathHunter cell lines
T3 sequence (P35414 1-380): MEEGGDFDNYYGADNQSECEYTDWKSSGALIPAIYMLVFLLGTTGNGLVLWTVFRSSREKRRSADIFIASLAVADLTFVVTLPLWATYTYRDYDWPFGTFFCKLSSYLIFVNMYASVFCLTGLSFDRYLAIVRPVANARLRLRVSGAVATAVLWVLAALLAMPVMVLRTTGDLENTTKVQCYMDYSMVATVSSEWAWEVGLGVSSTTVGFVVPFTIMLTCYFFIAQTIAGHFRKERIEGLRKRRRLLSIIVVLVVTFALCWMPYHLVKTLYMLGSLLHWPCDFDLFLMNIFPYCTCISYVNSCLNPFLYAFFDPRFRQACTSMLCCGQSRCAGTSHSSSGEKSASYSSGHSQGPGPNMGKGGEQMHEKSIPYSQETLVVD

168 GPCRs [4] = target: T4, 168 GPCRs (Homo sapiens, UniProt P41145); details: OPRK1
T4 construct: host or cells: PathHunter cell lines
T4 sequence (P41145 whole entry): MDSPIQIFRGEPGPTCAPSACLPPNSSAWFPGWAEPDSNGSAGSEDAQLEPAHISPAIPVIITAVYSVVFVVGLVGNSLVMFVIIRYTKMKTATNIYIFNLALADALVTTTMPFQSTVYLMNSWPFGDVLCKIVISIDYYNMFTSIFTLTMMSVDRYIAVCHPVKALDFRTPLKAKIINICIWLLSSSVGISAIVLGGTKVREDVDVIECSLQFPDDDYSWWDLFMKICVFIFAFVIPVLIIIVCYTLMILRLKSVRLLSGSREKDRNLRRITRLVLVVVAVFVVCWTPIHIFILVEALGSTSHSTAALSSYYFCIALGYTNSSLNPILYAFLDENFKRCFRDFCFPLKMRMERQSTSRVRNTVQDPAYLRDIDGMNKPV

168 GPCRs [5] = target: T5, 168 GPCRs (Homo sapiens, UniProt P46091)
T5 construct: host or cells: PathHunter cell lines
T5 sequence (P46091 1-355): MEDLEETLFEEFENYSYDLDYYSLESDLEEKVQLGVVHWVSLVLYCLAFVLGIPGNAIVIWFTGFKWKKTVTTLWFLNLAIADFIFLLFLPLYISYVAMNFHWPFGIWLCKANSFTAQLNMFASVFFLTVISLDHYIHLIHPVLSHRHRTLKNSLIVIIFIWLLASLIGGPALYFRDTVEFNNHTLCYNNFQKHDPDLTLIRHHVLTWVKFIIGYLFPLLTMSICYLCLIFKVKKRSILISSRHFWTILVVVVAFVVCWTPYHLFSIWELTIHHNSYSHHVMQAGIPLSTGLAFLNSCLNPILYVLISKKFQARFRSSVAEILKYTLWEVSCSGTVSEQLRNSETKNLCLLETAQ

168 GPCRs [6] = target: T6, 168 GPCRs (Homo sapiens, UniProt Q8TDS5); details: OXER1
T6 construct: host or cells: PathHunter cell lines
T6 sequence (Q8TDS5 whole entry): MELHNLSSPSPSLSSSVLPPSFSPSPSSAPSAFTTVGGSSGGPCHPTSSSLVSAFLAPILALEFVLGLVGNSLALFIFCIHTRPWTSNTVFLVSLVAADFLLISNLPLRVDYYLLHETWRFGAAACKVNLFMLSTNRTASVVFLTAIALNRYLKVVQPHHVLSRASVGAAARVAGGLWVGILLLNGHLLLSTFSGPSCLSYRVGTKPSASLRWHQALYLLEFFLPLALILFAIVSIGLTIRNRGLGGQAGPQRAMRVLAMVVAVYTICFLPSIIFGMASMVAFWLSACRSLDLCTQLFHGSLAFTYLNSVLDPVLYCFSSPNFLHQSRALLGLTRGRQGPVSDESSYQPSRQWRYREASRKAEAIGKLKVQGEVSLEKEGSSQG

168 GPCRs [7] = target: T7, 168 GPCRs (Homo sapiens, UniProt Q969V1)
T7 construct: host or cells: PathHunter cell lines
T7 sequence (Q969V1 whole entry): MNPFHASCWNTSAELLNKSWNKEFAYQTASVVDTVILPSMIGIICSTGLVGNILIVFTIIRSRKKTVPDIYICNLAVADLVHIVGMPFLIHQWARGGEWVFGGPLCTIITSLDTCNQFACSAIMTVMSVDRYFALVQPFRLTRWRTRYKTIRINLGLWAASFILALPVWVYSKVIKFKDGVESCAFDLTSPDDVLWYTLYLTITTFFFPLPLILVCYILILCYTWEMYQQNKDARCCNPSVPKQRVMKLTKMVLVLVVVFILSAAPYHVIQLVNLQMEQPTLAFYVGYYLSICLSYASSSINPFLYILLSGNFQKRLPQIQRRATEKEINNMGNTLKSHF

168 GPCRs [8] = target: T8, 168 GPCRs (Homo sapiens, UniProt Q99705)
T8 construct: host or cells: PathHunter cell lines
T8 sequence (Q99705 whole entry): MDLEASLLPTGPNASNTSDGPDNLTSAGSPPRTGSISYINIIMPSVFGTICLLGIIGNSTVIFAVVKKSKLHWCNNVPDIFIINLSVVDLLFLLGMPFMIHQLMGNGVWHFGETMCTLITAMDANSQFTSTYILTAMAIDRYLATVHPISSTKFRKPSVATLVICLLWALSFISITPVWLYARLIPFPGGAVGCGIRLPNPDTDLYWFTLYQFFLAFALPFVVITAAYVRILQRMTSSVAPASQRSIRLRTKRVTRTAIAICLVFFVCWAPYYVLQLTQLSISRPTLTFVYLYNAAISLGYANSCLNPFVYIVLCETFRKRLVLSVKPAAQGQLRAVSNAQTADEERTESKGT

CNC(C)C(=O)c1ccc2c(c1)OCO2 (stereo not shown) [methylone]
% Agonist Activity (168 GPCRs [1]; BDKRB2, 1 uM): -3.6%
% Antagonist Activity (168 GPCRs [1]; BDKRB2, 1 uM): 7.3%
% Agonist Activity (168 GPCRs [1]; BDKRB2, 10 uM): -2.9%
% Antagonist Activity (168 GPCRs [1]; BDKRB2, 10 uM): -2.6%
% Agonist Activity (168 GPCRs [2]; CCR1, 1 uM): -2.6%
% Antagonist Activity (168 GPCRs [2]; CCR1, 1 uM): -8.1%
% Agonist Activity (168 GPCRs [2]; CCR1, 10 uM): 3.6%
% Antagonist Activity (168 GPCRs [2]; CCR1, 10 uM): -16.6%
% Agonist Activity (168 GPCRs [3]; AGTRL1, 1 uM): -0.9%
% Antagonist Activity (168 GPCRs [3]; AGTRL1, 1 uM): -3.3%
% Agonist Activity (168 GPCRs [3]; AGTRL1, 10 uM): -1.5%
% Antagonist Activity (168 GPCRs [3]; AGTRL1, 10 uM): -4.1%
% Agonist Activity (168 GPCRs [4]; Conc 1 uM): -6.3%
% Antagonist Activity (168 GPCRs [4]; Conc 1 uM): 11.8%
% Agonist Activity (168 GPCRs [4]; Conc 10 uM): -4.1%
% Antagonist Activity (168 GPCRs [4]; Conc 10 uM): 10.4%
% Agonist Activity (168 GPCRs [5]; GPR1, 1 uM): -0.5%
% Antagonist Activity (168 GPCRs [5]; GPR1, 1 uM): 4.4%
% Agonist Activity (168 GPCRs [5]; GPR1, 10 uM): -0.7%
% Antagonist Activity (168 GPCRs [5]; GPR1, 10 uM): 7.4%
% Agonist Activity (168 GPCRs [6]; Conc 1 uM): 3.2%
% Antagonist Activity (168 GPCRs [6]; Conc 1 uM): 2.9%
% Agonist Activity (168 GPCRs [6]; Conc 10 uM): -3.7%
% Antagonist Activity (168 GPCRs [6]; Conc 10 uM): 7.6%
% Agonist Activity (168 GPCRs [7]; MCHR2, 1 uM): -1.5%
% Antagonist Activity (168 GPCRs [7]; MCHR2, 1 uM): 2%
% Agonist Activity (168 GPCRs [7]; MCHR2, 10 uM): -0.7%
% Antagonist Activity (168 GPCRs [7]; MCHR2, 10 uM): -4.5%
% Agonist Activity (168 GPCRs [8]; MCHR1, 1 uM): 3.9%
% Antagonist Activity (168 GPCRs [8]; MCHR1, 1 uM): -12.2%
% Agonist Activity (168 GPCRs [8]; MCHR1, 10 uM): 3.1%
% Antagonist Activity (168 GPCRs [8]; MCHR1, 10 uM): -18.3%

CNC(C)Cc1ccc2c(c1)OCO2 (stereo not shown) [MDMA, 3,4-Methylenedioxy methamphetamine, reference compound]
% Agonist Activity (168 GPCRs [1]; BDKRB2, 1 uM): 0.3%
% Antagonist Activity (168 GPCRs [1]; BDKRB2, 1 uM): -6.6%
% Agonist Activity (168 GPCRs [1]; BDKRB2, 10 uM): 0.1%
% Antagonist Activity (168 GPCRs [1]; BDKRB2, 10 uM): -5.6%
% Agonist Activity (168 GPCRs [2]; CCR1, 1 uM): 13.6%
% Antagonist Activity (168 GPCRs [2]; CCR1, 1 uM): -13%
% Agonist Activity (168 GPCRs [2]; CCR1, 10 uM): 6.2%
% Antagonist Activity (168 GPCRs [2]; CCR1, 10 uM): -7.6%
% Agonist Activity (168 GPCRs [3]; AGTRL1, 1 uM): -0.8%
% Antagonist Activity (168 GPCRs [3]; AGTRL1, 1 uM): -13.4%
% Agonist Activity (168 GPCRs [3]; AGTRL1, 10 uM): -0.2%
% Antagonist Activity (168 GPCRs [3]; AGTRL1, 10 uM): -8.4%
% Agonist Activity (168 GPCRs [4]; Conc 1 uM): 1.7%
% Antagonist Activity (168 GPCRs [4]; Conc 1 uM): 16.7%
% Agonist Activity (168 GPCRs [4]; Conc 10 uM): 0.5%
% Antagonist Activity (168 GPCRs [4]; Conc 10 uM): 18.1%
% Agonist Activity (168 GPCRs [5]; GPR1, 1 uM): 0.7%
% Antagonist Activity (168 GPCRs [5]; GPR1, 1 uM): 7.6%
% Agonist Activity (168 GPCRs [5]; GPR1, 10 uM): 0.2%
% Antagonist Activity (168 GPCRs [5]; GPR1, 10 uM): 11.9%
% Agonist Activity (168 GPCRs [6]; Conc 1 uM): 6.3%
% Antagonist Activity (168 GPCRs [6]; Conc 1 uM): -7.5%
% Agonist Activity (168 GPCRs [6]; Conc 10 uM): 4.8%
% Antagonist Activity (168 GPCRs [6]; Conc 10 uM): -1.7%
% Agonist Activity (168 GPCRs [7]; MCHR2, 1 uM): 0.8%
% Antagonist Activity (168 GPCRs [7]; MCHR2, 1 uM): -25%
% Agonist Activity (168 GPCRs [7]; MCHR2, 10 uM): 0.3%
% Antagonist Activity (168 GPCRs [7]; MCHR2, 10 uM): -17.3%
% Agonist Activity (168 GPCRs [8]; MCHR1, 1 uM): -4%
% Antagonist Activity (168 GPCRs [8]; MCHR1, 1 uM): 5.3%
% Agonist Activity (168 GPCRs [8]; MCHR1, 10 uM): -4.4%
% Antagonist Activity (168 GPCRs [8]; MCHR1, 10 uM): 2.1%

Reference: publication PMC10882719 (Frontiers in Neuroscience, 2024)
